“Also recorded” adds a separate entry of the source.
Key:
HaCAT cells = test: Cell penetration efficiency in human epidermal (skin) cells, 4 μM, flow cytometry; assay type: cell-based; settings: 4 μM FITC-conjugated CPP, one hour
Procedure: The cell penetration efficiency of the cationic CPPs selected in Example 1 was evaluated using human epidermal cells. In further detail, HaCAT cells, which is a human epidermal cell line, were seeded in 24-well plates to have a cell density of 1×10^7 cells/well, and cultured in 10% FBS-added DMEM under conditions of 37° C. and 5% CO2 for 24 hours. Subsequently, the cells were treated 4 μM each of the FITC-conjugated CPP or FITC-conjugated TAT, and incubated for one hour. After the termination of the incubation, the cells were transferred to a sterile tube using 0.25% trypsin, and the medium was removed through centrifugation. Afterward, the cells were washed with 500 μL of D-PBS twice to completely remove the medium, and finally, resuspended in 400 μL of D-PBS and intracellular fluorescence was measured by flow cytometry (FACSCanto II).
(§1) To evaluate the cell penetration efficiency of the additionally selected cationic CPPs, an experiment was conducted using human epidermal cells or human neuroblastoma cells. In further detail, HaCAT cells, which is a human epidermal cell line, or SH-SYSY cells, which is a human neuroblastoma cell line, were seeded in 24-well plates to have a cell density of 1×10^7 cells/well and cultured in 10% FBS-added DMEM under conditions of 37° C. and 5% CO2 for 24 hours. In addition, the cells were treated with 4 μM each of FITC-conjugated peptides and FITC-conjugated TAT for one hour. After the completion of the culture, the cells were transferred to a sterile tube using 0.25% trypsin and centrifuged to remove the medium. Afterward, the cells were washed with 500 μL of D-PBS twice to completely remove the medium, and finally, resuspended in 400 μL of D-PBS and intracellular fluorescence was measured by flow cytometry (FACSCanto II).
(§2) Subsequently, to confirm whether the CPPs according to the present invention show excellent cell permeability into different types of cells/tissues, various tissue-derived cells were treated with biologically active molecule-conjugated CPPs to compare its delivery capacity with TAT. As in the previous examples, each cell was aliquoted in a plate at an appropriate density, and cultured in a 10% FBS-added medium under a condition of 37° C. and 5% CO2 for 24 hours. Subsequently, the cells were treated with 4 μM each of FITC-conjugated CPP or FITC-conjugated TAT and incubated for one hour. After the completion of the incubation, the cells were transferred to a sterile tube using 0.25% trypsin and centrifuged to remove the medium. Afterward, the cells were washed with 500 μL of D-PBS twice to completely remove the medium, and finally, resuspended in 400 μL of D-PBS and intracellular fluorescence was measured by flow cytometry (FACSCanto II).

SH-SY5Y cells = test: Cell penetration efficiency in human neuroblastoma cells, 4 μM, flow cytometry; assay type: cell-based; settings: one hour; for cell permeability compared with TAT: 4 μM FITC-conjugated CPP, flow cytometry; for Score / Score/TAT: 4 μM FITC-conjugated peptide; for Score: intracellular fluorescence by flow cytometry; for Score/TAT: ratio to FITC-conjugated TAT
Procedure: The cell penetration efficiency of the cationic CPPs selected in Example 1 was evaluated in neuroblastoma. In further detail, SH-SYSY cells, which is a human neuroblastoma cell line, were seeded in 24-well plates to have a cell density of 1×10^7 cells/well, and cultured in 10% FBS-added DMEM under conditions of 37° C. and 5% CO2 for 24 hours. In addition, the cells were treated with 4 μM each of FITC-conjugated CPPs (C12, C14, C16, C31, C52, and C67), or FITC-conjugated TAT, and incubated for one hour. After the termination of the incubation, the cells were transferred to a sterile tube using 0.25% trypsin and centrifuged to remove the medium. Afterward, the cells were washed with 500 μL of D-PBS twice to completely remove the medium, and finally, resuspended in 400 μL of D-PBS and intracellular fluorescence was measured by flow cytometry (FACSCanto II).
as §1, §2

HGB cell line = test: Cell penetration efficiency in glioblastoma cells; assay type: cell-based, human; settings: 4 μM FITC-conjugated CPP, one hour
Procedure: as §2

HDF cell line = test: Cell penetration efficiency in skin cells (HDF); assay type: cell-based; settings: 4 μM FITC-conjugated CPP, one hour
Procedure: as §2

HeLa cell line = test: Cell penetration efficiency using cervical cancer cells; assay type: cell-based; settings: 4 μM FITC-conjugated CPP, one hour
Procedure: as §2

HT1080 cell line = test: Cell penetration efficiency using connective tissue (fibrosarcoma) cells; assay type: cell-based; settings: 4 μM FITC-conjugated CPP, one hour
Procedure: as §2

HepG2 cell line = test: Cell penetration efficiency using liver cells; assay type: cell-based; settings: 4 μM FITC-conjugated CPP, one hour
Procedure: as §2

HEK293T cell line = test: Cell penetration efficiency using kidney cells; assay type: cell-based; settings: 4 μM FITC-conjugated CPP, one hour
Procedure: as §2

A-427 cell line = test: Cell penetration efficiency using lung cells; assay type: cell-based; settings: A-427 lung cells, 4 μM FITC-conjugated CPP, one hour
Procedure: as §2

SNU-46 cell line = test: Cell penetration efficiency using laryngeal cells; assay type: cell-based; settings: SNU-46 laryngeal cells, 4 μM FITC-conjugated CPP, one hour
Procedure: as §2

monocytes = test: Cell penetration efficiency using monocytes; assay type: cell-based; settings: 4 μM FITC-conjugated CPP, one hour
Procedure: as §2

macrophages = test: Cell penetration efficiency using macrophages; assay type: cell-based; settings: macrophages differentiated from THP1 cells, 4 μM FITC-conjugated CPP, one hour
Procedure: as §2, with “II). Macrophages were used by inducing differentiation from THP1 cells. Specifically, the THP-1 cells were aliquoted on a cover glass laid on a 24-well plate to have a density of 6×10^4 cells/well, and after the addition of 100 ng/mL of phorbol 12-myristate 13-acetate (PMA), the cells were incubated for 48 hours to induce the differentiation into macrophages. After 48 hours, the cells were washed with Dulbecco's phosphate buffered saline (DPBS) to perform an experiment.” for “II).”

Sequence | cell permeability compared with TAT (HaCAT cells) | cell permeability compared with TAT (SH-SY5Y cells) | Score (SH-SY5Y cells) | Score/TAT (SH-SY5Y cells) | cell permeability compared with TAT (HGB cell line) | cell permeability compared with TAT (HDF cell line) | cell permeability compared with TAT (HeLa cell line) | cell permeability compared with TAT (HT1080 cell line) | cell permeability compared with TAT (HepG2 cell line) | cell permeability compared with TAT (HEK293T cell line) | cell permeability compared with TAT (A-427 cell line) | cell permeability compared with TAT (SNU-46 cell line) | cell permeability compared with TAT (monocytes) | cell permeability compared with TAT (macrophages)
ALVLLRRRRRDRKP [C14] | increased cell permeability; also recorded: higher cell permeability | higher cell permeability | 1382 | 2.663 | higher cell permeability | higher cell permeability | higher cell permeability | higher cell permeability | higher cell permeability | higher cell permeability | higher cell permeability | higher cell permeability | – | –
ARLRVILRRRNPKR [C93] | higher cell permeability | higher cell permeability | 1798 | 3.464 | higher cell permeability | higher cell permeability | higher cell permeability | higher cell permeability | higher cell permeability | higher cell permeability | higher cell permeability | higher cell permeability | higher cell permeability | –
IRAKKKKRRRKKKP [C31] | increased cell permeability; also recorded: higher cell permeability | higher cell permeability | 998 | 1.923 | – | higher cell permeability | higher cell permeability | higher cell permeability | higher cell permeability | higher cell permeability | higher cell permeability | higher cell permeability | – | higher cell permeability
KKRKKRRKKRKVDP [C67] | increased cell permeability | higher cell permeability | 2328 | 4.486 | higher cell permeability | higher cell permeability | higher cell permeability | higher cell permeability | higher cell permeability | higher cell permeability | higher cell permeability | higher cell permeability | – | –
LMPSKIRRRKKRKK [C85] | higher cell permeability | higher cell permeability | 798 | 1.538 | – | higher cell permeability | – | higher cell permeability | – | – | – | higher cell permeability | higher cell permeability | higher cell permeability
MKRLLKVVRRRRRP [C201] | – | higher cell permeability | 802 | 1.545 | higher cell permeability | – | higher cell permeability | – | – | – | – | higher cell permeability | – | higher cell permeability
MPKIRKLKRRKKFR [C79] | higher cell permeability | higher cell permeability | 863 | 1.663 | higher cell permeability | higher cell permeability | higher cell permeability | higher cell permeability | higher cell permeability | – | – | higher cell permeability | higher cell permeability | –
RPLVRRRLRRAVRR [C226] | higher cell permeability | – | 474 | 0.913 | – | – | higher cell permeability | – | – | – | – | higher cell permeability | higher cell permeability | higher cell permeability
TKRRKRRLRRRLTP [C52] | increased cell permeability; also recorded: higher cell permeability | higher cell permeability | 1328 | 2.559 | – | higher cell permeability | higher cell permeability | higher cell permeability | higher cell permeability | higher cell permeability | higher cell permeability | higher cell permeability | – | higher cell permeability
YRPRRKKITKKLKR [C283] | – | – | 514 | 0.990 | higher cell permeability | – | higher cell permeability | higher cell permeability | – | higher cell permeability | – | higher cell permeability | higher cell permeability | higher cell permeability

Reference: US11884750B2, “Cationic cell penetrating peptides and the use thereof” (CELLTROY CO., LTD., priority 2021, dated 2024)
